According to article PMC3160198 (The Journal of neuroscience : the official journal of the …, 2011):

Tests used:
α1β2 GABAA receptor = α1β2 GABAA receptor (Rattus norvegicus, UniProt P62813+P63138); assay: whole-cell patch clamp in HEK […] cells, potentiation of GABA current; type: cell-based; conditions: GABA 1 μM (EC50); pH 7.4; -60 mV; positive modulator
[1] = molecular target: homomeric ρ1 GABAC receptor (GABAρ1) (Homo sapiens, UniProt P24046); assay: two-electrode voltage clamp in Xenopus oocytes, potentiation of GABA current; type: cell-based; conditions: 3000 µM, GABA 0.3 μM, pH 7.0, -70 mV
homomeric ρ1 GABAC receptor (GABAρ1), sequence (P24046 22-479): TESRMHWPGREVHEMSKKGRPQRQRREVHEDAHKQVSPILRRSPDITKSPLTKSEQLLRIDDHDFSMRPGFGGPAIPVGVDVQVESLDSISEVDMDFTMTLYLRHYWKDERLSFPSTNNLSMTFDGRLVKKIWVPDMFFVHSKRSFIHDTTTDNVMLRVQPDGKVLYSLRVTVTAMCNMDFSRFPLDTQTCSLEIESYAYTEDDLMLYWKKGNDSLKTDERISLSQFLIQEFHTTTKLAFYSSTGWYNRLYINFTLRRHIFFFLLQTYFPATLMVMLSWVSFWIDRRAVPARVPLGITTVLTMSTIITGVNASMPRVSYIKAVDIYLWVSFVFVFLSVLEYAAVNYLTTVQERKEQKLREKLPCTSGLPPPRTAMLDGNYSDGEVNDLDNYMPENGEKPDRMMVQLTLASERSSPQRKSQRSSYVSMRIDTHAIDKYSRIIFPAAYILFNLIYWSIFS

α1β2 GABAA receptor, sequence (P62813 28-455): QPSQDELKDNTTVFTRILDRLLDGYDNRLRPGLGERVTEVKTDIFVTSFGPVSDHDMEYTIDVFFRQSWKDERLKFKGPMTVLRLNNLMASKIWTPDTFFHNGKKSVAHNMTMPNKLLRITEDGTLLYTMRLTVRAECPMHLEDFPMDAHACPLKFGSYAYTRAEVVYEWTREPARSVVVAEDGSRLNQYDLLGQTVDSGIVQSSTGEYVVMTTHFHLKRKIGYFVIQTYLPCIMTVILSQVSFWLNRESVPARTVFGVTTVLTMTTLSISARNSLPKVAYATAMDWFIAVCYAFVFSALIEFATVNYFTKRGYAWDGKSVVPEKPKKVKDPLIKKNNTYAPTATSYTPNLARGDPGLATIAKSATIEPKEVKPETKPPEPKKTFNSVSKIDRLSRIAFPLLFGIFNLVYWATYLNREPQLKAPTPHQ
α1β2 GABAA receptor, sequence (P63138 26-474): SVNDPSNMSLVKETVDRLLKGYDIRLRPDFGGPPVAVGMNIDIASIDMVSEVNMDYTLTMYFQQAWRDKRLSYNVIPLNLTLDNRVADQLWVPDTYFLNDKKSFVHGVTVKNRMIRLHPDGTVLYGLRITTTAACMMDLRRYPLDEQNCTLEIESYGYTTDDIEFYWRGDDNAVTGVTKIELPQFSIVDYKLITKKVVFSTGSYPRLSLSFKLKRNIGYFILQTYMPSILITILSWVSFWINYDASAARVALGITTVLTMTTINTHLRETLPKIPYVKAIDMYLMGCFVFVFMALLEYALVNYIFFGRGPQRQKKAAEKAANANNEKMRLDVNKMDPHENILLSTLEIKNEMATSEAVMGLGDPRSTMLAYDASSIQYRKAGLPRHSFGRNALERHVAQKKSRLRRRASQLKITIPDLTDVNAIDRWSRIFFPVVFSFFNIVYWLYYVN

O=C1O[C@H]([C@@H](O)CO)C(O)=C1O [Asc, Ascorbic acid]
% potentiation at 10 mM (α1β2 GABAA receptor): ~ 600% | % Potentiation ([1]; positive allosteric modulator): 139.5 ± 87.5%

O=C1O[C@H]([C@H](O)CO)C(O)=C1O [D-isoAsc, D-isoascorbic acid]
% Potentiation ([1]; positive allosteric modulator): 33.5 ± 12.5%

O=C1O[C@H]([C@@H](O)CO)C(=O)C1=O [DHA, L-dehydroascorbic acid]
% Potentiation [1]: -1.6 ± 4.2%
